Legend:
[1] = tested on: aOBBs (anisotropic organ building blocks of hiPSC-CMs and hNDFs); experiment: aOBB compaction upon harvest from micropillar array after pre-incubation in ROCK inhibitor; type: cell-based, human; conditions: FIGS. 8F, 8G; pre-incubation of aOBBs (50 uM, 1 hour)
Description: FIGS. 8A-8G depict scalable generation of cellularly aligned, anisotropic organ building blocks (OBBs). […] Scale bars, top: 200 μm, bottom: 20 μm. (FIG. 8B) Fourier analysis used to quantify the high degree of sarcomere alignment. (FIG. 8C) Without capped ends, aOBBs slide off micro-pillars overtime. (FIG. 8D) aOBB force generation on Day 3. n=5 separate passages. […] Scale bars, 1000 μm. In order to prevent aOBB compaction upon removal from pillars, the aOBBs may be pre-incubated in 50 uM rock inhibitor (Y-27632) for a period of time, such as, e.g., 1 hour. Second, 1 mL of 10% gelbrin (w/v) solution is prepared in DMEM/F12 (Gibco). Third, DMEM High Glucose+10% FBS is supplemented with 50 μM […] (Biogems). Fourth, 100 U/mL thrombin solution is prepared in DMEM High Glucose+10% FBS. All ECM and media solutions were held at 37° C. using a hotplate. […] After 1 h, the aOBBs were harvested manually using a P1000 pipette with wide-bore tips. The wide-bore tips were treated with 3% bovine serum albumin (BSA) to prevent adsorption of the aOBBs. aOBBs were collected three wells at a time and transferred into a single 50 mL tube. Upon collection, the aOBBs were allowed to settle under gravity for 5 min. After the supernatant was aspirated, the volume (x mL) of compacted aOBBs was estimated. We subsequently wash compacted aOBBs in 3× volume of gelbrin bioink. […]

[2] = tested on: aOBBs (anisotropic organ building blocks of hiPSC-CMs and hNDFs); experiment: aOBB contraction (force generation on micro-pillars) with ROCK inhibitor and after washing; type: cell-based, human; conditions: FIG. 8E, n=10 aOBBs from 1 passage
Text: FIGS. 8A-8G depict scalable generation of cellularly aligned, anisotropic organ building blocks (OBBs). […] Scale bars, top: 200 μm, bottom: 20 μm. (FIG. 8B) Fourier analysis used to quantify the high degree of sarcomere alignment. (FIG. 8C) Without capped ends, aOBBs slide off micro-pillars overtime. (FIG. 8D) aOBB force generation on Day 3. n=5 separate passages. […] Scale bars, 1000 μm. FIGS. 14A-14C depict contractile force measurements for aligned cardiac tissues. Force measurements are quantified using Euler-Bernoulli beam theory. Image and schematic representations of (FIG. 14A) micro- and (FIG. 14B) macro-pillars were quantified using an Instron. Micro- and macro-pillar dimensions were measured from high resolution images recorded across 20 independent samples. (FIG. 14C) The material and geometric information were combined to numerically estimate cantilever spring constants and translate pillar displacement to force generation. Based upon the total concentration of iPSC-CMs, an appropriate volume of 1× rat tail collagen I (Corning) solution was prepared on ice. An appropriate volume of collagen I is calculated based upon a desired final concentration of 1.25 mg/mL. Then y/100 mL of 250 mM CaCl2, ˜x/40 mL of 1 N NaOH, and y mL of collagen I are added, in order, to the basal DMEM high glucose media. […]

With `C[C@@H](N)[C@H]1CC[C@H](C(=O)Nc2ccncc2)CC1` [Y-27632] the “effect on aOBB compaction upon harvest” value [1] was “blunts compaction upon harvest from micropillar array”, the “recovery of aOBB contractile function” value ([2]; after washing out ROCK inhibitor) was “Full contractile function is recovered after washing” and the “effect on aOBB contraction” value ([2]; during exposure to ROCK inhibitor) was “temporarily blunts aOBB contraction”.

From patent US20250222168A1, “METHOD OF FORMING AN ALIGNED TISSUE OR TISSUE CONSTRUCT, A TISSUE OR TISSUE CONSTRUCT, AND BIOINK” (PRESIDENT AND FELLOWS OF HARVARD COLLEGE, priority 2022, published 2025)
